Common to all, as to format: cell-based
Assay [1] relates to Fusarium venenatum EmY1154-46-4.3 (pyrG-deleted). The assay is described as follows: Germination efficiency of spores of pyrG-deleted strain on uridine- and FdU-supplemented media. The procedure:
Germination efficiency of spores from the pyrG-deleted Fusarium venenatum strain EmY1154-46-4.3 on uridine- and FdU-supplemented media was tested. Spores of Fusarium venenatum EmY1154-46-4.3 were generated as described in Example 5 using RA medium supplemented with 10 mM uridine. Fifty spores in a volume of 200 μl were aliquoted to each of 45 VNO3RLMT plates (14 cm diameter) supplemented with 0, 25, or 50 μM FdU and 0, 0.01, 0.05, 0.1, or 0.25 mM uridine. Triplicate plates of each combination of FdU and uridine were set up and incubated in ChexAll Instant Seal Sterilization Pouches at 26° C. for 10 days.

The subject of assay [2] is Fusarium venenatum WTY1449-03-03 (bar+, tk+). The assay is described as follows: Growth of spores of bar+, tk+ strain on FdU- and uridine-supplemented VNO3RLMT plates. As to conditions: 6 days, 28° C. The method, then: To this end the bar+, tk+ strain Fusarium venenatum WTY1449-03-03 was revived on VNO3RLMT-BASTA™ plates (as described in Example 1) and induced to produce spores as described in Example 5. After harvesting and washing, the spores were plated (50,000 spores per 14 cm diameter plate) to FdU-supplemented VNO3RLMT plates containing 50 μM FdU and varying concentrations of uridine (0.1-1 mM). These plates were incubated at 28° C. in ChexAll Instant Seal Sterilization Pouches for 6 days, after which they were evaluated for growth.

In assay [3] the test system is Fusarium venenatum WTY1449-3-3 (tk+). The assay is described as follows: Reconstruction experiment, growth on FdU-supplemented minimal media, tk+ strain. As to conditions: 50 μM FdU. The method, then: (§1) To determine whether very low uridine concentrations could confer resistance to FdU in a tk+ strain, a reconstruction experiment was performed. The tk+ strain Fusarium venenatum WTY1449-3-3 and the tk− strain Fusarium venenatum WTY1449-9-1 were used. Spores of each strain were induced and plated at 50 spores per plate (Fusarium venenatum WTY1449-9-1) or 50,000 spores per 14 cm diameter plate (Fusarium venenatum WTY1449-3-3). In addition, a combination of WTY1449-3-3 and WTY1449-9-1 spores, […], were mixed and plated. All plates contained VNO3RLMT supplemented with 50 μM FdU. The uridine concentration in the plates was 1, 0.5, 0.25, or 0.1 mM. Each treatment was performed in triplicate.
(§2) Colonies appearing on the plates on which mixtures of tk+ and tk− spores had been plated were sub-cultured to fresh plates of VNO3RLMT medium supplemented with 50 μM FdU (NO uridine). An equivalent number of samples were also sub-cultured from the background growth (3 colonies per mixed plate) to VNO3RLMT+50 μM FdU (No uridine). In addition, colonies and background growth were sub-cultured from pure tk− plates and pure tk+ plates to plates of VNO3RLMT+50 μM FdU (no uridine). […]

The test system of assay [4] is Fusarium venenatum WTY842-1-11. The assay is described as follows: Sensitivity testing of Fusarium venenatum WTY842-1-11 to FdU (plug growth on VNO3RLMT). As to conditions: 14 days. The method, then: For a thymidine kinase gene (tk) to be useful as a negatively selectable marker, a fungus must be […] to rather high concentrations of the nucleoside analog 5-fluoro-deoxyuridine (FdU). In order to ascertain the degree of sensitivity of Fusarium venenatum WTY842-1-11 to FdU, a one week old culture of Fusarium venenatum WTY842-1-11 was prepared by plating a colonized agar plug of the strain taken from a 10% glycerol stock, which had been stored at −140° C., onto a VNO3RLMT plate and incubating in a ChexAll Instant Seal Sterilization Pouch (Fisher Scientific, Pittsburgh, Pa., USA) for 7 days at 26-28° C. After 7 days plugs were cut sub-marginally from the one week old culture and placed face down on VNO3RLMT medium supplemented with different concentrations of FdU (0 to 500 μM) (Sigma Chemical Co., St. Louis, Mo., USA) in 6 well plates. The plates were incubated at 26-28° C. in open ZIPLOC® bags (S.C. Johnson Home Storage, Inc., Racine, Wis., USA) for 14 days, after which the extent of growth at each FdU concentration was recorded.

Assay [5] relates to Fusarium venenatum WTY1449-9-1 (tk-). In words: Reconstruction experiment, growth on FdU-supplemented minimal media, tk- strain. As to conditions: 50 μM FdU. The method, then:
as §1, §2

Regarding `O=c1[nH]c(=O)n([C@H]2C[C@H](O)[C@@H](CO)O2)cc1F` [FdU, 5-fluoro-deoxyuridine], the spore germination frequency result in assay [1] (25 and 50 μM FdU, uridine 0.1 mM, 75% in the absence of FdU) is listed as “approximately 50%”. Further, the spore germination entry in assay [1] (25 or 50 μM FdU, uridine 0.01 mM, 10 days, 26° C.) is listed as “could not germinate”. In addition, the growth result in assay [2] (50 μM FdU plus uridine 0.1-1 mM) is on record as “extensive growth”; in assay [2] (50 μM FdU, without uridine), “no growth”; in assay [3] (uridine 0.1-1 mM plates), “grew as a uniform haze”; in assay [5] (all concentrations of uridine and medium lacking uridine) it was “grew well”. The figures for the growth after sub-culture result in assay [3] (uridine-deficient media) and in assay [5] (uridine-deficient media) were “could absolutely not grow” and “grew normally”, respectively. Also, the “sensitivity (extent of growth) to FdU” value in assay [4] (FdU 0 to 500 μM, VNO3RLMT, 26-28° C.) is given as “insensitive”. Also, in assay [4] (compared to concentrations of 50 μM and below), the “FdU concentration at which growth was slightly reduced” value is listed as “greater than 100 μM”.

Source of the values: patent US20110223671A1, “Methods for using positively and negatively selectable genes in a filamentous fungal cell” (priority 2008, published 2011).
